These results are taken from EP2486923B1, “Histone deacetylase (HDAC) inhibiting compounds and method of making same” (Dr. Felix Jäger und Dr. Stefan Drinkuth Laborgemeinschaft …, priority 2011, dated 2012).

Like-named read-outs stand apart in the source and are kept apart here.

Common to all, as to experiment: Two-step fluorescence assay for determination of IC50
Type in all cases: biochemical

One assay addresses HDAC1 (Homo sapiens, UniProt Q13547). The method, then: (§1) In order to evaluate the inhibitory characteristics of example compounds of the invention, IC50 values were determined for such compounds. […] A two-step assay was used for this purpose.
(§2) To obtain the IC50 value for an individual compound/HDAC pair, a two-step assay can be performed based on a fluorescence signal. In principle, an ε-acetylated lysine substrate is deacetylated by histone-deacetylases in the first step. Trypsin releases detectable 7-amino-4-methylcoumarin (ex = excitation wavelength: 390 nm, em = emission wavelength: 460 nm) by cleaving the substrate at the deacetylated lysine in a subsequent reaction^[9]. The enzyme activity is inhibited by a suitable HDACi.
(§3) The obtained data are interpreted using a four parameter fit. Based on this fit, the IC50 value can be estimated. Analysis ot the data and calculation of the IC50 values was accomplished using a four-parameter logistic model protocol as previously described by Vølund^[16]. For nonlinear fits the Levenberg-Marquardt algorithm was applied^[17],[18]. […] Table 1: IC50 values in µM for synthesized compounds of the invention with a perfluorinated linker. […] HDAH = HDAC-like amidohydrolase

A further assay addresses T1, HDAC6 (Homo sapiens, UniProt Q9UBN7).
T1 sequence (Q9UBN7 1-1215): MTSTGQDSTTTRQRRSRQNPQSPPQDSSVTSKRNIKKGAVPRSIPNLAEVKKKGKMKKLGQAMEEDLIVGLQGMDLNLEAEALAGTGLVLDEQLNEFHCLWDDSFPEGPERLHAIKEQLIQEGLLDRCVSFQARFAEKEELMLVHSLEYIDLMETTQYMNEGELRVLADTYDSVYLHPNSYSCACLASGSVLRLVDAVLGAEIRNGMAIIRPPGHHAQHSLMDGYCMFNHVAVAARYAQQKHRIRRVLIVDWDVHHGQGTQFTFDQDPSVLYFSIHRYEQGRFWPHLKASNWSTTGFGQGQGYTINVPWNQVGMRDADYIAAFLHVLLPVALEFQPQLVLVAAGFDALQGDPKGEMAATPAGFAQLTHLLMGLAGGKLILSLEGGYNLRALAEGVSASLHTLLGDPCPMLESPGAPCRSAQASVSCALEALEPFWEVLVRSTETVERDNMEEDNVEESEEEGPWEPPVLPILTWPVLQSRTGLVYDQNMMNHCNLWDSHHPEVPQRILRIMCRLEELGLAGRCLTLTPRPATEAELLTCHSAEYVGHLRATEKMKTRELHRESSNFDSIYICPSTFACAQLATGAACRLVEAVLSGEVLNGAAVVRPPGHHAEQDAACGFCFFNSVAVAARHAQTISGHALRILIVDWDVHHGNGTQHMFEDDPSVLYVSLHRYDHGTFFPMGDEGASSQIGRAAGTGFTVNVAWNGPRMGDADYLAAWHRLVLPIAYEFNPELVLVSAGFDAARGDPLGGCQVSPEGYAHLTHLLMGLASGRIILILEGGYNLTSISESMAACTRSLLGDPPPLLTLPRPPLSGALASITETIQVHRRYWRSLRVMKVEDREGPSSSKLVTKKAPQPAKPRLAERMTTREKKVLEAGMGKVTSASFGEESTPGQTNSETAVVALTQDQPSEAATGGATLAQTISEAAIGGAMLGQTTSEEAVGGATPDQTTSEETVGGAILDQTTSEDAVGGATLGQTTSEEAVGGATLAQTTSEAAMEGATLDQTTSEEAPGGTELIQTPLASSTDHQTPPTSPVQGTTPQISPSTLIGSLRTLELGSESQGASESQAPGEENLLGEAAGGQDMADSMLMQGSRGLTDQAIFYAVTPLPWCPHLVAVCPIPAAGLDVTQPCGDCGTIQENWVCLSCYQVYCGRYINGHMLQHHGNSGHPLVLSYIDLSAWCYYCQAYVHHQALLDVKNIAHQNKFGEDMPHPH
How it is done: as §1, §2, §3

Another assay addresses T2, HDAC7 (Homo sapiens, UniProt Q8WUI4).
T2 sequence (Q8WUI4 1-952): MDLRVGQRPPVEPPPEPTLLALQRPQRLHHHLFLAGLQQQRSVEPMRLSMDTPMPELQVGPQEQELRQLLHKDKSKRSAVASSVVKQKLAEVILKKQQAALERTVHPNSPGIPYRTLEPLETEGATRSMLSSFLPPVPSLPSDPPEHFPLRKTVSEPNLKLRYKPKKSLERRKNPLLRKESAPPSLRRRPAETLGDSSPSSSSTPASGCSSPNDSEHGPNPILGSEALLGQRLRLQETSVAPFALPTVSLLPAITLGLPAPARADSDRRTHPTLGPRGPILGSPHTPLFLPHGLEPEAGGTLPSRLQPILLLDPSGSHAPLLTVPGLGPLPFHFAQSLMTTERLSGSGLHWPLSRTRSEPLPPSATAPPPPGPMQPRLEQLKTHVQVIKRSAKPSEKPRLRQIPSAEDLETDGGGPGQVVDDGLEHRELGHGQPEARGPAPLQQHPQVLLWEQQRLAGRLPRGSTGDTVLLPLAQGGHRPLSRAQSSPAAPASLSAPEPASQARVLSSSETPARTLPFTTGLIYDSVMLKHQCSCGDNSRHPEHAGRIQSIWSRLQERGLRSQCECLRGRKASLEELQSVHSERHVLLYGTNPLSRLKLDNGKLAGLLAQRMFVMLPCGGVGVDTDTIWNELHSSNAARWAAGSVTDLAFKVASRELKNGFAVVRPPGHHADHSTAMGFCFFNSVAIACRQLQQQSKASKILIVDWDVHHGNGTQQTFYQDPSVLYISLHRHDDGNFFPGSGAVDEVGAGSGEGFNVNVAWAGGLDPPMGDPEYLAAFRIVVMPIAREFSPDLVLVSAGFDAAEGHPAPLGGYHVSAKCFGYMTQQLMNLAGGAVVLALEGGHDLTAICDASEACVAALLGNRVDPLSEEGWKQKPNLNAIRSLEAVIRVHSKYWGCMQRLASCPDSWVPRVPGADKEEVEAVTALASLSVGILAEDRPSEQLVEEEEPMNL
How it is done:
as §1, §2, §3

The next assay concerns the target T3, HDAH (Alcaligenes sp., UniProt Q70I53).
T3 sequence (Q70I53 1-369): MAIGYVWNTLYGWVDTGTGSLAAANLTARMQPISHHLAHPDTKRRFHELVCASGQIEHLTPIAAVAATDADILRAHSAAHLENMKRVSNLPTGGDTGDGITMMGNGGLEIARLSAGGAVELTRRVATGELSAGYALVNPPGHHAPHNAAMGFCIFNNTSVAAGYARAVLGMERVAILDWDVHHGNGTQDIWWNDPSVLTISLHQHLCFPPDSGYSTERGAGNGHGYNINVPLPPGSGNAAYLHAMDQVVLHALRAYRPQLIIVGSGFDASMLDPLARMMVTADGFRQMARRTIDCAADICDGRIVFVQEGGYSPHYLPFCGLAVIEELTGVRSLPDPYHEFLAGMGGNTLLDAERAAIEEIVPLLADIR
The method, then:
as §1, §2, §3

For the next assay, the target named is T4, HDAC8 (Homo sapiens, UniProt Q9BY41).
T4 sequence (Q9BY41 1-377): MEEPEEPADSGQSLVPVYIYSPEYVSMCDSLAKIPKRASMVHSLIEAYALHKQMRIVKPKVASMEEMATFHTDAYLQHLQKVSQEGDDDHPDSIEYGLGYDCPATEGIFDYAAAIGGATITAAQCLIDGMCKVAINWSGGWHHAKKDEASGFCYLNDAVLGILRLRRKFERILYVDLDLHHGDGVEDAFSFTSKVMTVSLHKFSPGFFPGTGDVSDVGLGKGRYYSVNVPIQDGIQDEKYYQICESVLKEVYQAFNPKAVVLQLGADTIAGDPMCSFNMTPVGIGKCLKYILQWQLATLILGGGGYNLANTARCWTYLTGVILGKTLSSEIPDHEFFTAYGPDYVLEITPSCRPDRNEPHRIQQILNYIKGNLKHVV
The method, then: as §1, §2, §3

Setting [1] is: ε-acetylated lysine substrate, trypsin release of 7-amino-4-methylcoumarin, four parameter fit, read-out: IC50 values HDAC6.
Setting [2] is: HDAC-like amidohydrolase, ε-acetylated lysine substrate, trypsin release of 7-amino-4-methylcoumarin, four parameter fit, read-out: IC50 values HDAH.
[3] abbreviates: ε-acetylated lysine substrate, trypsin release of 7-amino-4-methylcoumarin, four parameter fit, read-out: IC50 values HDAC1.
Where [4] appears, read: ε-acetylated lysine substrate, trypsin release of 7-amino-4-methylcoumarin, four parameter fit, read-out: IC50 values HDAC7.
Where [5] appears, read: ε-acetylated lysine substrate, trypsin release of 7-amino-4-methylcoumarin, four parameter fit, read-out: IC50 values HDAC8.

Sequence of HDAC1 (Q13547 whole entry): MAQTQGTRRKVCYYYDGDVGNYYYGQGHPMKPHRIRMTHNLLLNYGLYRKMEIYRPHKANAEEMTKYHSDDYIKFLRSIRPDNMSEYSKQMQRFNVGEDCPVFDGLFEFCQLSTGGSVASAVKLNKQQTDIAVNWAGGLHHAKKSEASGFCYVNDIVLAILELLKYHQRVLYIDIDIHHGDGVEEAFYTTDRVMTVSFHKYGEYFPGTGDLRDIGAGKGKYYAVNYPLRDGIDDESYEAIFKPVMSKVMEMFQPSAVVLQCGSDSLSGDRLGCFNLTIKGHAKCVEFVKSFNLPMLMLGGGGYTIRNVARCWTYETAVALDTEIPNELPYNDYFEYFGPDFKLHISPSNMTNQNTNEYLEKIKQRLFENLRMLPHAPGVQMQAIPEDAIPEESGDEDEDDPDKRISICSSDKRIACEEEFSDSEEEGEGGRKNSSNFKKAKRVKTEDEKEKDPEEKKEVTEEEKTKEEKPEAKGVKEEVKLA

`O=C(NO)C(F)(F)C(F)(F)C(F)(F)C(F)(F)C(F)(F)C(F)(F)C(=O)Nc1ccccc1` [LU210, 2,2,3,3,4,4,5,5,6,6,7,7-Dodecafluorooctanedioic acid hydroxyamide phenyl-amide]: the concentration for half-maximal inhibition (IC50) on HDAC1 is 17.9 µM; at HDAC6 (setting [1]), 12.5 µM; against HDAC7, 14.8 µM; at HDAH (setting [2]), 1.67 µM.

As to `Cc1ccc(NC(=O)C(F)(F)C(F)(F)C(F)(F)C(F)(F)C(F)(F)C(F)(F)C(=O)NO)cc1` [LU222, 2,2,3,3,4,4,5,5,6,6,7,7-Dodecafluorooctanedioic acid hydroxyamide 4-methyl-phenylamide], the half-maximal inhibitory concentration (IC50) was 16.3 µM at HDAC1 (setting [3]); > 100 µM at HDAC6 (setting [1]); 84.8 µM at HDAC7; 87.6 µM against HDAC8; 0.86 µM on HDAH (setting [2]).

On to `O=C(NO)C(F)(F)C(F)(F)C(F)(F)C(F)(F)C(F)(F)C(F)(F)C(=O)Nc1ccc(Cl)cc1` [LU223, 2,2,3,3,4,4,5,5,6,6,7,7-Dodecafluorooctanedioic acid (4-chlorophenyl)amide hydroxyamide], for which the IC50 was determined as 15.1 µM on HDAC1 (setting [3]); 26.3 µM at HDAC6; 26.8 µM at HDAC7 (setting [4]); 73 µM at HDAC8 (setting [5]); 0.72 µM against HDAH.

`CC(=O)Nc1ccc(NC(=O)C(F)(F)C(F)(F)C(F)(F)C(F)(F)C(F)(F)C(F)(F)C(=O)NO)cc1` [LU224, 2,2,3,3,4,4,5,5,6,6,7,7-Dodecafluorooctanedioic acid (4-acetylaminophenyl)-amide hydroxyamide]: the IC50 on HDAC1 (setting [3]) stood at 21.8 µM; on HDAC6 (setting [1]) it was 10.5 µM; on HDAC7 (setting [4]), 21.5 µM; at HDAC8 (setting [5]), 76.2 µM; at HDAH (setting [2]), 3.41 µM.

For the compound `N#Cc1ccc(NC(=O)C(F)(F)C(F)(F)C(F)(F)C(F)(F)C(F)(F)C(F)(F)C(=O)NO)cc1` [LU225 A, 2,2,3,3,4,4,5,5,6,6,7,7-Dodecafluorooctanedioic acid (4-cyanophenyl)amide hydroxyamide], the IC50 at HDAC1 (setting [3]) was 21.8 µM; on HDAC6 (setting [1]) it was > 100 µM; on HDAC7 (setting [4]), 53.7 µM; at HDAC8 (setting [5]), 73.9 µM; at HDAH, 0.7 µM.

As to `O=C(NO)C(F)(F)C(F)(F)C(F)(F)C(F)(F)C(F)(F)C(F)(F)C(=O)Nc1ccc(I)cc1` [LU227, 2,2,3,3,4,4,5,5,6,6,7,7-Dodecafluorooctanedioic acid hydroxyamide (4-iodo-phenyl)amide], the IC50 was determined as 16.9 µM at HDAC1 (setting [3]); 5.13 µM on HDAC6 (setting [1]); 6.86 µM at HDAC7 (setting [4]); 75.8 µM on HDAC8 (setting [5]); 0.91 µM on HDAH (setting [2]).

In the case of `Cc1ccc(NC(=O)C(F)(F)C(F)(F)C(F)(F)C(F)(F)C(F)(F)C(F)(F)C(=O)NO)cc1C` [LU228, 2,2,3,3,4,4,5,5,6,6,7,7-Dodecafluorooctanedioic acid (3,4-dimethylphenyl)-amide hydroxyamide], the IC50 was 10 µM at HDAC1; 7.8 µM at HDAC6 (setting [1]); 5.51 µM against HDAC7; 22.8 µM on HDAC8 (setting [5]); 0.66 µM at HDAH (setting [2]).

For `O=C(NO)C(F)(F)C(F)(F)C(F)(F)C(F)(F)C(F)(F)C(F)(F)C(=O)Nc1ccc(-c2ccccc2)cc1` [LU229, 2,2,3,3,4,4,5,5,6,6,7,7-Dodecafluorooctanedioic acid biphenyl-4-ylamide hydroxyamide], the IC50 was 37.9 µM at HDAC1 (setting [3]); 59.1 µM at HDAC6 (setting [1]); 22 µM on HDAC7; > 100 µM on HDAC8 (setting [5]); 0.78 µM at HDAH (setting [2]).

Regarding `CCc1cccc(NC(=O)C(F)(F)C(F)(F)C(F)(F)C(F)(F)C(F)(F)C(F)(F)C(=O)NO)c1` [LU232, 2,2,3,3,4,4,5,5,6,6,7,7-Dodecafluorooctanedioic acid (3-ethylphenyl)amide hydroxyamide], the IC50 amounted to 19.9 µM against HDAC1; 1.55 µM on HDAC6; 4.97 µM at HDAC7 (setting [4]); 21.3 µM on HDAC8 (setting [5]); 9.18 µM on HDAH (setting [2]).

For `O=C(NO)C(F)(F)C(F)(F)C(F)(F)C(F)(F)C(F)(F)C(F)(F)C(=O)Nc1ccc2ccc3cccc4ccc1c2c34` [LU234, 2,2,3,3,4,4,5,5,6,6,7,7-Dodecafluorooctanedioic acid hydroxyamide pyren-1-ylamide], the IC50 at HDAC1 (setting [3]) was 28.3 µM; at HDAC6 (setting [1]), 20.2 µM; at HDAC7 (setting [4]), > 100 µM; on HDAC8, 77.8 µM; at HDAH (setting [2]), 1.48 µM.
